What all share (format): functional
In test [1] the test system is Trichophyton mentagrophytes. As to the kind of experiment: Antimicrobial activity against Trichophyton mentagrophytes ATCC 9972.
The subject of test [2] is Staphylococcus aureus. As to the kind of experiment: Antimicrobial activity against Staphylococcus aureus ATCC 6538.
For test [3], the system named is Saccharomyces cerevisiae. As to the kind of experiment: Antimicrobial activity against Saccharomyces cerevisiae ATCC 9763.
The test system of test [4] is Mycolicibacterium smegmatis. As to the kind of experiment: Antimicrobial activity against Mycobacterium smegmatis ATCC 607.

Molecules are shown by their SMILES. Converted amounts (≈) assume the structure as drawn.

The term MIC denotes the lowest concentration found to suppress growth. Higher therefore signals weaker potency. For `C=CCc1ccc(Oc2cc(CC=C)ccc2O)cc1` [ISOMAGNOLOL], the MIC in test [1] is 1.56 µg/mL (≈ 5.86 µM); in test [2], 3.12 µg/mL (≈ 11.7 µM); in test [3], 25 µg/mL (≈ 93.9 µM); in test [4] it was 1.56 µg/mL (≈ 5.86 µM).

The record behind these values is ChEMBL document CHEMBL1145660, “Antimicrobial Neolignans of Sassafras randaiense Roots” (1983).
